Tested on: ÜBERGEWICHTIGEN FRAUEN
Assay: Three-year placebo-controlled prophylaxis study: incidence of diabetes mellitus in overweight persons with impaired oral glucose tolerance
Type: in vivo, Patienten
Settings: for DIABETES MELLITUS (ERKRANKUNGSRATE AN DIABETES MELLITUS): number of cases (WHO definition), 2 X 3 mg tgl.
Text: Es wurden 122 übergewichtigte Personen ausgesucht, die im Mittel 25 % Übergewicht und eine gestörte orale Glukosetoleranz hatten. Diese Patienten gaben nach Aufklärung ihr Einverständnis an dieser Studie über 3 Jahre teilzunehmen. Sie hatten bereits 5 bis 10 Versuche einer Gewichtsabnahme hinter sich, die alle erfolglos verlaufen waren. Ein Diabetes mellitus war nach der Definition des World Health Organization-Reports (Techn. Rep. Ser. 646, 1-80, 1980), bei diesen Patieten ausgeschlossen. Sie wurden in zwei gleich starke Gruppen eingeteilt, so daß nach Alter, Ausmaß der Störung des Glucose-Toleranz-Tests (OGTT) und Größe und Dauer des Übergewichts kein Unterschied bestand. Die Patienten wurden in halbjährlichen Abständen ambulant kontrolliert. Wie zu Beginn, wurden bei diesen Kontrollen folgende Blutwerte gemessen: Blutsenkung, Blutbild, Nüchternblutzucker, OGTT, Gewicht, Cholesterin und Triglyzeride, Serum Glutamat-Oxalat-Transaminase (SGOT), Serum Glutamat-Pyruvat Transaminase (SGPT). Damit wurden den Stoffwechesl beeinträchtigende Krankheiten ausgeschlossen.
Sie erste Gruppe erhielt 2 x 3 mg Captopril täglich, die zweite entsprechend Placebo. Die Patienten hatten die Auflage, keine den Stoffwech l beeinträchtigende Medikamente, z.B. Diuretika, β-Blocker ode dergleichen einzunehmen. In beiden Gruppen schieden über den Zeitraum von 3 Jahren 28 Patienten aus verschiede nen Gründen aus. Die Gruppen veränderten sich dadurch jedoch nicht so, daß sie statistisch nicht mehr auswertbar waren.

SMILES: C[C@H](CS)C(=O)N1CCC[C@H]1C(=O)O [Captopril, 1-[(2S)-3-Mercapto-2-methylpropionyl]-L-prolin]
- Erkrankungsrate an Diabetes mellitus (nach 3 Jahren, versus placebo, 2 x 3 mg täglich, p < 0,001 (Student's t-Test)): geringere Erkrankungsrate an Diabetes mellitus
- DIABETES MELLITUS (ERKRANKUNGSRATE AN DIABETES MELLITUS) (ZEITRAUM 1985 -1 (start), 63 in group): 0
- DIABETES MELLITUS (ERKRANKUNGSRATE AN DIABETES MELLITUS) (ZEITRAUM 1986 - 2, 60 in group): 2
- DIABETES MELLITUS (ERKRANKUNGSRATE AN DIABETES MELLITUS) (ZEITRAUM 1987 - 2, 54 in group): 4
- DIABETES MELLITUS (ERKRANKUNGSRATE AN DIABETES MELLITUS) (ZEITRAUM 1988 - 1, 48 in group, placebo 11 of 46, p< 0,001): 4
- Verminderung dieses Risikos (an Diabetes mellitus zu erkranken) (risk groups (strongly overweight, older than 50 years; risk about 45 % over two years), 2 x 3 mg pro Tag): > 50%

— EP0331014A2, “Use of ACE inhibitors in diabetes prophylaxis” (THERA - Patent Verwaltungs-GmbH, priority 1988, dated 1989)
